Like-named read-outs stand apart in the source and are kept apart here.
Experiments:
[1] = Alcohol solution, neutralization titration method (pKa); format: physicochemical
Text: |Alcohol solution, |neutralization pH ranging |titration method

two-spotted spider mites = test: Test Example 1: acaricidal activity, dipping of kidneybean leaves infested with two-spotted spider mites; format: in vivo; settings: for activity at 0.04 ppm: 0.04 p.p.m.; for activity at 0.08 ppm: 0.08 p.p.m.; for activity at 0.16 ppm: 0.16 p.p.m.; for activity at 0.31 ppm: 0.31 p.p.m.; for activity at 0.63 ppm: 0.63 p.p.m.; for activity at 1.25 ppm: 1.25 p.p.m.; for activity at 2.5 ppm: 2.5 p.p.m.; for activity at 5 ppm / activity at 10 ppm / activity at 20 ppm: read-out: acaricidal activity (%)
European red mites = test: Test Example 2: spraying of apple leaves infested with European red mites; format: in vivo; settings: 5 days after spraying, non-treated 88/102
Protocol: An emulsifiable concentrate containing 20% of a of a crude B-41, which had been obtained by purifying two times according to alumina column chromatography the brown oily substance prepared in Example 1, was diluted to a given concentration to prepare a chemical solution. This chemical solution was sprayed to apple leaves infested with about 100 European red mites and, 5 days thereafter, the number of living mites was counted.

citrus red mites = test: Test Example 3: acaricidal activity, spraying of orange leaves infested with citrus red mites; format: in vivo; settings: after 24 hours
Protocol: This chemical solution was sprayed to orange leaves infested with citrus red mites, and the acaricidal activity (%) after 24 hours was calculated.

Solubility in solvents = format: physicochemical; settings: "do." = same as A1
rice stem borer = test: Test Example 5: mortality of rice stem borer larvae in rice plants; format: in vivo, rice stem borer of 1st generation; settings: 120 h, read-out: mortality (%) of the larvae
Protocol: Eggs of rice stem borer of 1st generation were inoculated to rice plants (variety "Kinmaze"), which had been planted in 200 cm^2 pots, and were hatched to allow the larvae invade the stems. Subsequently, a wettable powder containing 40% of a crude B-41, which had been obtained by purifying two times according to alumina column chromatography the brown oily substance prepared in Example 1, was diluted to a given concentration and then sprayed to the plants in a proportion of 100 cc. per pot. 5 Days thereafter, the stems were split to examine the alive and dead of the larvae, and the mortality (%) of the larvae was calculated.

SMILES | pKa (No pKa at pH ranging from 2 to 12) [1] | activity at 0.04 ppm (two-spotted spider mites; after 24 hours) [%] | activity at 0.08 ppm (two-spotted spider mites; after 24 hours) [%] | activity at 0.16 ppm (two-spotted spider mites; after 24 hours) [%] | activity at 0.31 ppm (two-spotted spider mites; after 24 hours) [%] | activity at 0.63 ppm (two-spotted spider mites; after 24 hours) [%] | activity at 1.25 ppm (two-spotted spider mites; after 24 hours) [%] | activity at 2.5 ppm (two-spotted spider mites; after 24 hours) [%] | activity at 5 ppm (two-spotted spider mites; 5 p.p.m., after 24 hours) [%] | activity at 10 ppm (two-spotted spider mites; 10 p.p.m., after 24 hours) [%] | activity at 20 ppm (two-spotted spider mites; 20 p.p.m., after 24 hours) [%] | also measured
CC1=CCC2CC(CC3(CCC(C)C(C)O3)O2)OC(=O)C2C=C(C)C(O)C3OCC(=CC=CC(C)C1)C23O (stereo not drawn) [A3] | do. | 15.2 | 100 | 98.2 | 100 | 100 | 100 | 100 | 100 | 100 | 100 | –
COC1C(C)=CC2C(=O)OC3CC(CC=C(C)CC(C)C=CC=C4COC1C42O)OC1(CCC(C)C(C)O1)C3 (stereo not drawn) [B2] | – | – | 0 | 16.6 | 80.5 | 100 | 100 | 100 | 100 | 100 | 100 | pH at which crystallization took place in the titration ([1]; alcohol solution, neutralization titration): ~8.7
CC1=CCC2CC(CC3(CCC(C)C(C)O3)O2)OC(=O)C2C=C(COC(=O)c3ccc[nH]3)C(O)C3OCC(=CC=CC(C)C1)C23O (stereo not drawn) [C1] | No pKa | 51.8 | 100 | 100 | 100 | 100 | 100 | 100 | 100 | 100 | 100 | –
CCC1OC2(CCC1C)CC1CC(CC=C(C)CC(C)C=CC=C3COC4C(O)C(COC(=O)c5ccc[nH]5)=CC(C(=O)O1)C34O)O2 (stereo not drawn) [C2] | do. | 97.3 | 100 | 100 | 100 | 100 | 100 | 100 | 100 | 100 | 100 | –
OC(c1ccc(Cl)cc1)(c1ccc(Cl)cc1)C(Cl)(Cl)Cl [Kelthane, 1,1-Bis-(p-chlorophenyl)-2,2,2-trichloroethanol] | – | – | – | – | – | – | – | – | – | – | – | number of mites living at counting / before spraying (given as fraction) (European red mites; 50 p.m.m. [sic]): 56/128; number of mites living at counting / before spraying (given as fraction) (European red mites; 100 p.p.m.): 8/103; number of mites living at counting / before spraying (given as fraction) (European red mites; 200 p.p.m.): 0/97; activity at 7 ppm (citrus red mites; 7 p.p.m.): 30.8%; activity at 20 ppm (citrus red mites; 20 p.p.m.): 90.9%; activity at 5 ppm (two-spotted spider mites; 24 h): 0%; activity at 10 ppm (two-spotted spider mites; 24 h): 56.4%; activity at 20 ppm (two-spotted spider mites; 24 h): 100%
COC1CC2(O)C(CO)=CC=CC(C)CC(C)=CCC3CC(CC4(CCC(C)C(C)O4)O3)OC(=O)C2C=C1C (stereo not drawn) [A1] | No pKa | – | – | – | – | – | 0 | 19.9 | 100 | 100 | 100 | Solubility in organic solvents ("easily soluble in n-hexane, benzene, acetone, ethanol and chloroform") (Solubility in solvents; n-hexane, benzene, acetone, ethanol and chloroform): easily; Solubility in water ("Difficultly soluble in water") (Solubility in solvents; water): Difficultly
CCC1OC2(CCC1C)CC1CC(CC=C(C)CC(C)C=CC=C3COC4C(OC)C(C)=CC(C(=O)O1)C34O)O2 (stereo not drawn) [B3] | – | 0 | 18.3 | 74.1 | 100 | 100 | 100 | 100 | 100 | 100 | 100 | –
CCC1OC2(CCC1C)CC1CC(CC=C(C)CC(C)C=CC=C3COC4C(O)C(C)=CC(C(=O)O1)C34O)O2 (stereo not drawn) [A4] | – | 21.3 | 100 | 100 | 100 | 100 | 100 | 100 | 100 | 100 | 100 | –
COP(=O)(OC)OC=C(Cl)Cl [Reference **] | – | – | – | – | – | – | – | – | – | – | – | mortality at 50 ppm (rice stem borer): 25.5%; mortality at 100 ppm (rice stem borer): 82.1%
